Laboratory results reported in patent US9221833B2, “Antiviral compounds” (GILEAD PHARMASSET LLC, priority 2011, dated 2015).
pEC50: −log10 of the molar value. Like-named read-outs stand apart in the source and are kept apart here.

How the values were obtained:
[1] = system: genotype 2a J6 strain NS5A gene (M31 present); test: Replicon assay, NS5A chimeric 2a JFH-1 replicon with 2a J6 NS5A, transient (t) or stable (s), Huh-Lunet cells; assay type: cell-based, HCV
Protocol: (§1) Evaluation of cell-based anti-HCV activity: Antiviral potency (EC50) was determined using a Renilla luciferase (RLuc)-based HCV replicon reporter assay. […] To perform the assay for genotype 2a (with M31 present in NS5A) or 2b, NS5A chimeric genotype 2a JFH-1 replicons that encodes a RLuc-Neo reporter and either genotype 2a J6 strain NS5A gene or genotype 2b MD2b-1 strain NS5A gene (both with M31 present) respectively, were either transiently transfected (t) into Huh-Lunet cells or were established as stably replicating replicon cells (s) is provided. Either cells were dispensed into 384-well plates for EC50 assays. To perform the assay for genotype 3 and 4, NS5A chimeric genotype 1b Con1 replicons that encodes a Pi-RLuc reporter and either genotype 3a S52 strain NS5A gene or genotype 4a ED43 strain NS5A gene respectively, were transiently transfected (t) into Huh-Lunet cells, which were subsequently dispensed into 384-well plates. Compounds were dissolved in DMSO at a concentration of 10 mM and diluted in DMSO either manually or using an automated pipeting instrument. Serially 3-fold diluted compounds were either manually mixed with cell culture media and added to the seeded cells or directly added to the cells using an automated instrument. […] 72 hours later, cells were lysed and Renilla luciferase activity quantified as recommended by the manufacturer (Promega-Madison, Wis.). Non-linear regression was performed to calculate EC50 values.

[2] = system: genotype 2a JFH-1 replicon (L31 present in NS5A); test: microbe, parasite or virus in culture; assay type: cell-based, HCV; settings: Hepatitis C virus, read-out: 2a JFH
[3] = system: genotype 1b Con1 replicon; test: microbe, parasite or virus in culture; assay type: cell-based, HCV; settings: for EC50: Hepatitis C virus, read-out: 1b (nM)
Protocol: as §1

[4] = system: genotype 1a H77 replicon; test: microbe, parasite or virus in culture; assay type: cell-based, HCV; settings: Hepatitis C virus; for pEC50: read-out: 1a; for EC50: read-out: 1a (nM)
Protocol: as §1

[5] = system: genotype 2b MD2b-1 strain NS5A gene (M31 present); test: microbe, parasite or virus in culture; assay type: cell-based, HCV
Protocol: as §1

[6] = system: Q30R in genotype 1a NS5A; test: Antiviral potency against resistance mutant, 1a Pi-Rluc replicon in Huh-7-derived cured-51 cells; assay type: cell-based, HCV; settings: for pEC50: read-out: 1a Q30R
Protocol: as §1
To determine the antiviral potency (EC50) against resistance mutants, resistance mutations, including M28T, Q30R, Q30H, L31M, and Y93C in genotype 1a NS5A and Y93H in genotype 1b NS5A, were introduced individually into either 1a Pi-Rluc or 1b Pi-Rluc replicons by site directed mutagenesis. Replicon RNA of each resistant mutant was transiently transfected into Huh-7-derived cured-51 cells and antiviral potency was determined on these transfected cells as described above.

[7] = system: genotype 4a ED43 strain NS5A gene; test: Replicon assay, NS5A chimeric 1b Con1 replicon with 4a NS5A, transiently transfected Huh-Lunet cells; assay type: cell-based, HCV; settings: Hepatitis C virus; for pEC50: read-out: 4a
Protocol: as §1, with “[…],” for “were transiently transfected (t) into Huh-Lunet cells,”

[8] = system: genotype 3a S52 strain NS5A gene; test: Replicon assay, NS5A chimeric 1b Con1 replicon with 3a NS5A, transiently transfected Huh-Lunet cells; assay type: cell-based, HCV; settings: for pEC50: read-out: 3a
Protocol: as §1

[9] = system: genotype 2a JFH-1 replicon (L31 present in NS5A); test: microbe, parasite or virus in culture; assay type: cell-based, HCV; settings: for EC50: Hepatitis C virus, read-out: 2a JFH (nM); for pEC50: genotype 2a JFH replicon, read-out: 2a JFH
Protocol: as §1

[10] = IV and PO Single Dose Pharmacokinetic Studies in SD Rats; assay type: in vivo, male Sprague-Dawley (SD) rats; settings: oral bioavailability, PO 2 mg/kg vs IV infusion 1 mg/kg
Protocol: IV and PO Single Dose Pharmacokinetic Studies in SD Rats: The pharmacokinetics of selected compounds was characterized in male Sprague-Dawley (SD) rats (250-300g). […] The intravenous (IV) dosing vehicle was 5% ethanol, 35% polyethylene glycol 400 (PEG 400) and 60% water pH 2.0. […] Serial blood samples (approximately 0.3 mL each) were collected from jugular vein or other suitable vein at specified time points. […] The blood samples were collected into Vacutainer™ tubes containing EDTA-K3 as the anti-coagulant and were centrifuged at approximately 4° C. to obtain plasma. The plasma samples were stored at −20° C. until analysis by LC/MS/MS. […] Standard curve and quality control samples were prepared in male rat plasma and processed in the same way as the test samples to generate quantitative data. […] Values below the lower limit of quantification (LLOQ) were assigned a value of zero if predose and treated as missing thereafter. Area under the curve (AUC) was calculated using the linear trapezoidal rule. The oral bioavailability (% F) was determined by comparison of the area under the curve (AUC) of the compound and/or a metabolite generated in plasma following oral administration to that generated following intravenous administration.

[11] = Hepatitis C virus, read-out: 2a J6
[12] = Hepatitis C virus, read-out: 2b
[13] = Hepatitis C virus, read-out: 2a J6 (t) (nM)
[14] = Hepatitis C virus, read-out: 2b (s) (nM)
[15] = Hepatitis C virus, read-out: 2b (t) (nM)

Compound | pEC50 [1, 11] | pEC50 [2] | EC50 [3] [nM] | pEC50 [4] | pEC50 [5, 12] | EC50 [1, 13] [nM] | pEC50 [7] | EC50 ([7]; read-out: 4a (s) (nM)) [nM] | EC50 [4] [nM] | EC50 [9] [nM] | EC50 [5, 14] [nM] | EC50 [5, 15] [nM] | also measured
CCC(C)[C@H](NC(=O)OC)C(=O)N1C[C@@H](C)CC1c1ncc(-c2ccc3c(c2)COc2cc4c(ccc5nc([C@@H]6C[C@H](COC)CN6C(=O)[C@@H](NC(=O)OC)C(C)OC)[nH]c54)cc2-3)[nH]1 (stereo in doubt) [Example QD, Methyl {(2S,3R)-1-[(2S,4S)-2-(5-{2-[(2S,4S)-1-[N-(methoxycarbonyl)-O-methyl-L-allothreonyl]-4-(methoxymethyl)pyrrolidin-2-yl]-1,11-dihydroisochromeno[4′,3′:6,7]naphtho[1,2-d]imidazol-9-yl}-1H-imidazol-2-yl)-4-methylpyrrolidin-1-yl]-3-methyl-1-oxopentan-2-yl}carbamate] | > 9.00 | > 9.00 | 0.03 | > 9.00 | > 9.00 | – | – | – | – | – | – | – | –
COC(=O)NC(C(=O)N1CCCC1c1nc2ccc3cc4c(cc3c2[nH]1)OCc1cc(-c2cnc(C3CCCN3C(=O)C(NC(=O)O)C(C)C)[nH]2)ccc1-4)c1ccccc1 (stereo not drawn) [Example LQ, [1-(2-{5-[2-(1-{[(Methoxycarbonyl)amino](phenyl)acetyl}pyrrolidin-2-yl)-1,11-dihydroisochromeno[4′,3′:6,7]naphtho[1,2-d]imidazol-9-yl]-1H-imidazol-2-yl}pyrrolidin-1-yl)-3-methyl-1-oxobutan-2-yl]carbamic acid] | > 9.00 | > 9.00 | 0.02 | > 9.00 | > 9.00 | 0.134 | > 9.00 | 0.02 | 0.022 | 0.004 | 0.035 | 0.012 | pEC50 ([6]; Hepatitis C virus): > 9.00; EC50 ([6]; Hepatitis C virus, read-out: 1a Q30R (nM)): 0.135 nM; EC50 ([1]; Hepatitis C virus, read-out: 2a J6 (s) (nM)): 0.543 nM; EC50 ([7]; read-out: 4a (t) (nM)): 0.008 nM; pEC50 ([8]; Hepatitis C virus): > 9.00; EC50 ([8]; Hepatitis C virus, read-out: 3a (nM)): 0.005 nM
COC[C@H]1C[C@@H](c2nc3ccc4cc5c(cc4c3[nH]2)OCc2cc(-c3cnc([C@@H]4CC[C@H](C)N4C(=O)[C@@H](NC(=O)OC)C(C)C)[nH]3)ccc2-5)N(C(=O)[C@@H](NC(=O)OC)[C@@H](C)OC)C1 [Example OM, Methyl {(2S)-1-[(2S,4S)-2-(5-{2-[(2S,5S)-1-{(2S,3R)-3-methoxy-2-[(methoxycarbonyl)amino]butanoyl}-4-(methoxymethyl)pyrrolidin-2-yl]-1,11-dihydroisochromeno[4′,3′:6,7]naphtho[1,2-d]imidazol-9-yl}-1H-imidazol-2-yl)-5-methylpyrrolidin-1-yl]-3-methyl-1-oxobutan-2-yl}carbamate] | – | – | – | – | – | – | – | – | – | – | – | – | Rat % F [10]: 12.2%; pEC50 ([6]; genotype 1a Q30R resistance mutant, EC50 range class): > 9.00; pEC50 ([6]; genotype 1a Q30R resistance mutant): 10.46; pEC50 ([1]; genotype 2a J6, EC50 range class, transiently transfected cells (t), if unavailable stably replicating cells (s), read-out: 2a J6): > 9.00; pEC50 ([1]; transiently transfected cells (t), read-out: 2a J6 (t)): 10.35; pEC50 ([8]; genotype 3a, EC50 range class): > 9.00; pEC50 ([8]; genotype 3a): 10.46; pEC50 ([3]; read-out: 1b): 10.72; pEC50 ([9]; EC50 range class): > 9.00; pEC50 [9]: 11.05; pEC50 ([5]; genotype 2b, EC50 range class, transiently transfected cells (t), if unavailable stably replicating cells (s), read-out: 2b): > 9.00; pEC50 ([5]; stably replicating cells (s), read-out: 2b (s)): 10.27; pEC50 ([5]; transiently transfected cells (t), read-out: 2b (t)): 10.28
COC[C@H]1C[C@@H](c2nc3ccc4cc5c(cc4c3[nH]2)OCc2cc(-c3cnc([C@@H]4C[C@H]6C[C@H]6N4C(=O)[C@@H](NC(=O)OC)[C@@H](C)OC)[nH]3)ccc2-5)N(C(=O)[C@H](NC(=O)OC)c2ccccc2)C1 [Example MX] | > 9.00 | > 9.00 | 0.076 | > 9.00 | > 9.00 | 0.035 | > 9.00 | 0.033 | 0.036 | 0.024 | 0.139 | 0.07 | –
